In ChEMBL document CHEMBL5579827, “Discovery of orally bioavailable phenyltetrazolium derivatives for the acute treatment and the secondary prevention of ischemic stroke” (Eur J Med Chem, 2024):

What was measured:
[1] = Tmax in Sprague-Dawley rat at 10 mg/kg, po measured upto 8 hrs by LC-MS/MS analysis; type: ADME, organism-based; conditions: Sprague-Dawley, in vivo, read-out: Tmax
[2] = Cmax in Sprague-Dawley rat at 10 mg/kg, po measured upto 8 hrs by LC-MS/MS analysis; type: ADME, organism-based; conditions: Sprague-Dawley, in vivo, read-out: Cmax
[3] = AUC(0 to t) in Sprague-Dawley rat at 10 mg/kg, po measured upto 8 hrs by LC-MS/MS analysis; type: ADME, organism-based; conditions: in vivo
N2a [4] = test: Neuroprotective activity against OGD/R induced cell injury in mouse N2a cells assessed as cell viability at 10 uM preincubated under hypoxic condition for 2 hrs and measured after 24 hrs (reference value: 28.66 to 30.22 %); type: functional; conditions: time 26 hrs, read-out: Activity
N2a [5] = test: Neuroprotective activity against OGD/R induced cell injury in mouse N2a cells assessed as decrease in apoptotic ratio at 10 uM incubated for 24 hrs; type: functional; parameters: scale not given: the % may be the effect or the level left
Mus musculus = test: Neuroprotective activity against tMCAO-reperfusion induced brain injury in SPF C57 mouse model assessed as reduction in infarct volume at 10 mg/kg, iv measured after 24 hrs; type: functional; parameters: scale not given: the % may be the effect or the level left
[6] = Half-life in Sprague-Dawley rat at 10 mg/kg, po measured upto 8 hrs by LC-MS/MS analysis; type: ADME, organism-based; conditions: Sprague-Dawley, in vivo
[7] = AUC(0 to infinity) in Sprague-Dawley rat at 10 mg/kg, po measured upto 8 hrs by LC-MS/MS analysis; type: ADME, organism-based; conditions: Sprague-Dawley, in vivo

| Tmax [1] | AUC(0-t) at 8 h [3] | Structure (SMILES) | viability at 10 µM (N2a [4]) | other results |
| --- | --- | --- | --- | --- |
| 15 min | 2670 ng·h/mL | CCCCCC(O)c1ccc(Br)cc1-c1nn[nH]n1 (configuration not stated) | 38% | Cmax [2]: 13600 ng/mL |
| 15 min | 2670 ng·h/mL | CCCCC(O)c1ccc(F)cc1-c1nn[nH]n1 (configuration not stated) | 35.1% |  |
|  |  | CCCCC(O)c1ccccc1-c1cc[nH]n1 (configuration not stated) | 39.5% |  |
|  |  | CCCCC(O)c1ccc(Br)cc1-c1nnn(C2CC2)n1 (configuration not stated) | 50.6% |  |
|  |  | CCCCC1OC(=O)c2ccccc21 (stereo not drawn) [RAC-3-N-BUTYLPHTHALIDE] | 36.6% | Activity (N2a [5]): 130.83%; Activity (Mus musculus): 25.43% |
|  |  | CCCCC(O)c1ccccc1-c1ccc[nH]1 (configuration not stated) | 38.6% |  |
| 15 min | 26500 ng·h/mL | CCCCC(O)c1ccccc1-c1nn[nH]n1 (configuration not stated) | 40.5% | Cmax [2]: 12200 ng/mL; half-life [6]: 279 min; AUC(0-inf) [7]: 37100 ng·h/mL |
| 15 min | 2670 ng·h/mL | CCCCC(O)c1ccc(Cl)cc1-c1nn[nH]n1 (configuration not stated) | 27.5% |  |
